We go through one compound from PMC8151276, “An Integrated Approach toward NanoBRET Tracers for Analysis of GPCR Ligand Engagement” (Molecules, 2021).

The assay relates to HiBiT-GPCRs. As to the kind of experiment: NanoBRET saturation ligand-engagement assay in HEK293. In kind it is binding, human. An excerpt:
Metabotropic GRM1 glutamate receptor, metabotropic 1 glutamate GRM2 glutamate receptor, metabotropic 2
GRM3 glutamate receptor, metabotropic 3
GRM4 glutamate receptor, metabotropic 4
GRM5 glutamate receptor, metabotropic 5
GRM7 glutamate receptor, metabotropic 7
GRM8 glutamate receptor, metabotropic 8
Glucagon ADCYAP1R1 adenylate cyclase activating polypeptide 1
(pituitary) receptor type I
Lutropin- LHCGR luteinizing hormone/choriogonadotropin choriogonadotropin receptor
Cysteinyl leukotriene CYSLTR1 cysteinyl leukotriene receptor 1
CYSLTR2 cysteinyl leukotriene receptor 2
Cell culture and transfection
HEK293 cells were obtained from American Type Culture Collection (ATCC) and cultured at 37 °C/5% CO2 in Dulbecco's Modified Eagle Medium (DMEM) (Gibco) supplemented with 10% fetal bovine serum (Seradigm) and 100 units/mL of penicillin-streptomycin (Gibco). Transfections were carried out using Viafect (Promega) at a 1:3 DNA/transfection reagent ratio. Generally, DNA encoding HiBiT-GPCR fusion was diluted 1:100 in promoterless carrier DNA. […]
in the presence of 30 μM competing unmodified compound for 90 min at room temperature. […] Filtered luminescence was then measured using GloMax Discover microplate reader (Promega) equipped with a 450-nm (8-nm band pass) filter (donor) and a 600-nm long pass filter (acceptor). BRET was calculated by dividing the acceptor emission by the donor emission. […]
On the technique in general: Bioluminescence resonance energy transfer reports proximity on the nanometre scale.

Turning to `O=C(CCOCCOCCOCCOCCNC(=O)CCc1ccc2n1[B-](F)(F)[N+]1=C(c3ccc[nH]3)C=CC1=C2)NCCCN1CCN(C2=Nc3cc(Cl)ccc3Nc3ccccc32)CC1` [Clozapine-a-2-NB590], the Concentration-dependent binding entry (ADRA2A and HTR1D, competing Clozapine (30 μM)) is reported as “specific but suffered from high background”. For the same compound, where the note is “range over 17 of the 19 GPCRs, background corrected with competing Clozapine (30 μM), read-out: EC50 values (concentration-dependent tracer binding)”, the EC50 is 1 to 600 nM.
